Assay results published in patent US20090018111A1, “Novel Antimicrobial Medicament” (priority 2004, published 2009).
Where two headings read alike, the source gives them in different places.

Experiments:
P. vurgalis OX-19 = experiment: Sensitivity test (agar dilution); format: cell-based, Proteus vulgaris; conditions: Proteus vulgaris, P. vurgalis OX-19
Procedure, shortened: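 Each strain, cultured overnight at 37° C and adjusted to about 10^6 CFU/ml in BSG, was spotted (about 5 μl) on Mueller Hinton agar with twofold serial drug concentrations. Inhibition defines the MIC.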

[1] = test system: 18 bacteria (27 standard strains); experiment: Sensitivity test, combination effect over the standard strains; format: cell-based; conditions: in combination with compound 1, standard strains
Method: The antibacterial activities were tested against various 18 bacteria (27 standard strains) which are representative bacteria caused clinically infectious disease (Staphylococcus aureus 3 strains, Staphylococcus epidermidis 1 strain, Micrococcus luteus 1 strain, Streptococcus pyogenes 1 strain, Enterococcus faecalis 1 strain, Enterococcus faecium 1 strain, Bacillus subtilis 1 strain, Escherichia coli 3 strains, Klebsiella pneumoniae 1 strain, Proteus mirabilis 1 strain, Proteus vulgaris 2 strains, Pseudomonas aeruginosa 3 strains, Serratia marcescens 2 strains, Enterobacter aerogenes 1 strain, Stenotrophomonas maltophilia 1 strain, Enterobacter cloacae 1 strain, Citrobacter freundii 1 strain, Moraxella catarrhalis 2 strains).
According to the standard method of Japan Chemotherapeutic Society (Chemotherapy, vol. […], p 76-79 (1981)) the test was carried out using the agar dilution method. After dissolving test samples in distilled water, agar medium containing the test samples was prepared in such a manner that the final concentration became twice serial dilution by pouring serially diluted combination drug solution or a single drug solution into agar medium. As agar medium was used Mueller Hinton Agar medium (MHA). Then, each strain was cultivated over night at 37° C. in an incubator and suspended in buffered saline solution with gelatin (BSG) in the concentration of about 10^6 CFU/ml. The suspension (about 5 μl) containing test strains was inoculated to the medium containing the test samples by Micro Planter.
When the sample is subjected to sensitivity test, this mixed solution was diluted by twice serial dilution method.
FIC index based on MIC value was calculated. […] Namely, when FIC index calculated by the following formula is equal or less than 1, the enhanced effect of the combination drug in said ratio is considered as positive. When FIC index is over 1, the enhanced effect of the combination drug in said ratio is considered as negative.
Formula of FIC index: FIC index=(MIC of Drug A in combination/MIC of Drug A alone)+(MIC of Drug B in combination/MIC of Drug B alone) N.C. in tables means being not calculated.

[2] = OX19, drug alone, read-out: MIC alone

SMILES | MIC (P. vurgalis OX-19; OX19, Concomitant (PAPM:SM = 1:1), read-out: MIC concomitant) [µg/mL] | MIC (P. vurgalis OX-19; [2]) [µg/mL] | combination effect [1] | MIC (P. vurgalis OX-19; OX19, Concomitant (DRPM:SM = 1:1), read-out: MIC concomitant) [µg/mL] | MIC (P. vurgalis OX-19; OX19, Concomitant (CAZ:SM = 1:1), read-out: MIC concomitant) [µg/mL] | MIC (P. vurgalis OX-19; OX19, read-out: MIC alone, drug alone) [µg/mL] | MIC (P. vurgalis OX-19; OX19, read-out: MIC concomitant, Concomitant (PIPC:SM = 1:1)) [µg/mL] | MIC (P. vurgalis OX-19; OX19, Concomitant (BIPM:SM = 1:1), read-out: MIC concomitant) [µg/mL]
CC(=N)N1CC[C@H](SC2=C(C(=O)O)N3C(=O)[C@H]([C@@H](C)O)[C@H]3C2)C1 [PAPM, panipenem] | 0.063 | 1 | the combination effect was recognized |  |  |  |  | 
C[C@@H](O)[C@H]1C(=O)N2C(C(=O)O)=C(S[C@@H]3CN[C@H](CNS(N)(=O)=O)C3)[C@H](C)[C@H]12 [DRPM, doripenem] |  | 0.031 | the combination effect was recognized | 0.031 |  |  |  | 
CC(C)(O/N=C(\C(=O)N[C@@H]1C(=O)N2C(C(=O)[O-])=C(C[n+]3ccccc3)CS[C@H]12)c1csc(N)n1)C(=O)O [CAZ, ceftazidime] |  | 0.031 | antagonism was recognized |  | 0.008 |  |  | 
CCN1CCN(C(=O)N[C@@H](C(=O)N[C@@H]2C(=O)N3[C@@H]2SC(C)(C)[C@@H]3C(=O)O)c2ccccc2)C(=O)C1=O [PIPC, piperacillin] |  |  | antagonism was recognized |  |  | 0.008 | 0.008 | 
C[C@@H](O)[C@H]1C(=O)N2C(C(=O)[O-])=C(SC3Cn4cnc[n+]4C3)[C@H](C)[C@H]12 (stereo partly drawn) [BIPM, biapenem] |  | 0.25 | the combination effect was recognized |  |  |  |  | 0.031
